Results on 37 compounds are retold here after PubChem BioAssay (NCI).

Several values for one entry are separate records, joined by “and”; a condition that tells them apart may be missing. Identical values can stand only once.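 48-hour exposure; five concentrations; linearly interpolated endpoints. GI50 marks 50% less growth. TGI is the concentration that stops growth completely.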

The test system of the test is MDA-MB-468 breast. The test is described as follows: NCI-60 cell line screen, 48 h.

On to `CC(=O)c1ccc2c(c1)C1C=CCC1[C@H](c1cc3c(cc1Br)OCO3)N2` (stereo partly specified), for which the GI50 was 0.308 µM.
`CC(C)Nc1cc(-c2c[nH]c(C(=O)N[C@H](CO)c3cccc(Cl)c3)c2)c(Cl)cn1`: the GI50 was 3.54 µM and 5.12 µM; the TGI was 18.3 µM and > 10 µM.
With `CS(=O)(=O)CCNCc1cc(-c2cc3c(Nc4ccc(OCc5cccc(F)c5)c(Cl)c4)ncnc3s2)cs1`, the GI50 is 0.569 µM and the TGI was 4.13 µM.
As to `O=S(=O)(NCCNc1nccc(-c2c(-c3ccc(F)c(O)c3)nc3sccn23)n1)c1ccc(F)cc1`, the GI50 is 2.97 µM and the TGI turned out to be 25.5 µM.
For `COc1cc(OC)c(C(=O)/C=C/c2cc3c(cc2OCc2ccccc2)OC(C)(C)CC3)cc1CC=C(C)C` the same measures were 1.86 µM and 7.84 µM.
In the same order, the values of `O=C(/C=C/c1ccccc1)C(Br)C(Br)c1ccccc1` (stereo unspecified) are 1.31 µM and 3.48 µM.
For the compound `COc1ccc(-c2ccncc2)cc1C(N)=O`, the GI50 was over 25 µM and the TGI is over 25 µM.
Turning to `CCC(O)c1ccc(Br)cc1NC(=O)c1cccc(Cl)c1` (stereo unspecified), the GI50 was 20.3 µM and the TGI worked out at 56.5 µM.
Regarding `CC(C)c1cnn2c(NCc3ccccc3)cc(NC[C@H]3CCNC[C@@H]3O)nc12`, the GI50 is 0.381 µM and 0.519 µM; the TGI is 1.79 µM and 2.33 µM.
Consider `C[C@@H]1C[C@H](C)CN(S(=O)(=O)c2ccc3c(NO)c4ccc(S(=O)(=O)N5C[C@H](C)C[C@H](C)C5)cc4c(N=O)c3c2)C1`, for which the GI50 was 0.154 µM and the TGI stood at 0.312 µM.
On to `CCOC(=O)Nc1nc2ccc(OC)cc2s1`, for which the GI50 is 69.4 µM and the TGI was over 100 µM.
As to `COc1ccc(/C=C/C(=O)/C=C/c2cc3ccccc3[nH]c2=O)cc1`, the GI50 is 2.32 µM and the TGI was 6.59 µM.
For the compound `CC(=O)Oc1ccc(C23c4ccccc4C2(OC(C)=O)c2cc(OC(C)=O)ccc23)cc1` (stereo unspecified), the GI50 is 0.57 µM and the TGI came to 5.02 µM.
For `CCNc1cc(-c2cccc(OC(F)(F)F)c2)nc2ccc(N3CCCC3)cc12` the same measures were 1.4 µM and 3.35 µM.
Consider `CCCCCCCCCCCCCCCCCC1=NC(C)(C)CN1CC(C)O` (stereo unspecified), for which the GI50 is 12.1 µM and the TGI came to 24.4 µM.
Regarding `COc1cc(F)c(F)c(Nc2ccc(I)cc2F)c1NS(=O)(=O)C1(C[C@H](O)CO)CC1`, the GI50 was over 5.95 µM and the TGI was over 10 µM.
As for `COc1ccc2c(=O)cc(-c3ccccc3)[nH]c2c1`, the GI50 is 0.887 µM and the TGI was over 100 µM.
With `CN(Cc1cnc2nc(N)nc(N)c2n1)c1ccc(C(=O)N[C@@H](CCC(=O)O)C(=O)O)cc1`, the TGI is over 250 µM.
Take `O=C(/C=C/C12c3ccccc3C(c3ccccc31)C1C(=O)NC(=O)C12)c1ccc(Cl)cc1Cl` (stereo unspecified): the GI50 is 1.96 µM and the TGI turned out to be 4.13 µM.
As for `CCOC(=O)C(Cc1c[nH]c2c(N(CCO)CCO)cccc12)(NC(C)=O)C(=O)OCC`, the TGI stood at 132 µM.
For `Nc1nonc1-c1nc2cnccc2n1C1CC1`, the GI50 is 1.96 µM and the TGI amounted to 10.1 µM.
On to `Cc1nc(-c2ccccc2)n2nc(NCCCN3CCOCC3)ncc12`, for which the GI50 is over 5.33 µM and the TGI was over 25 µM.
As for `O=[N+]([O-])c1cc(Cl)c2[nH]c3c(Cl)cc([N+](=O)[O-])cc3c2c1`, the GI50 is 0.169 µM and the TGI was 2.26 µM.
For `COc1cc2nc(SCc3cc(OC)c(OC)c(OC)c3)n(Cc3ccccc3)c(=O)c2cc1OC` the same measures were 0.307 µM and 1.91 µM.
Regarding `CC(C)c1c(-c2ccccc2)nc2c(C#N)c[nH]n2c1=O`, the GI50 is 19.1 µM and the TGI was 50.9 µM.
Take `COc1cc2ncn(-c3cc(OCc4ccccc4C(F)(F)F)c(C(=O)N(C)C)s3)c2cc1OC`: the GI50 was 7.66 µM and the TGI was over 14.7 µM.
As for `Cc1nc(N)nc2c1CCC(O)S2` (stereo unspecified), the GI50 was 2.74 µM and the TGI came to 13 µM.
With `COc1cccc(/C(C#N)=C/c2nc3c(N4CCOCC4)nc(Cl)nc3n2C)c1`, the GI50 was 0.497 µM and the TGI worked out at 1.87 µM.
On to `CC[C@H](Nc1ncnc2nc[nH]c12)c1nc2cccc(F)c2c(=O)n1-c1ccccc1`, for which the GI50 is 2.1 µM and the TGI was 10.4 µM.
For `CCCCCCCCOC(=O)CC[C@@H](C)[C@H]1CC[C@H]2[C@@H]3[C@H](OC(=O)CCN)C[C@@H]4C[C@H](OC(=O)CCN)CC[C@]4(C)[C@H]3C[C@H](OC(=O)CCN)[C@]12C` the same measures were 2.49 µM and 7.17 µM.
`Cn1c(C(=O)c2ccncc2)cc2ccccc21`: the GI50 was 32.3 µM and the TGI was over 100 µM.
In the same order, the values of `O=c1c2cc(F)ccc2sc2c(N3CCNCC3)nc3ccc(F)cc3c12` are 1.58 µM and 3.05 µM.
In the same order, the values of `O=C1/C(=C/c2cccc(Br)c2)COc2ccc(O)cc21` are 1.75 µM and 4.33 µM.
For `O=C(NOC[C@H](O)CO)c1ccc(F)c(F)c1Nc1ccc(I)cc1F` the same measures were 13.9 µM and over 100 µM.
As to `COc1ccc(-c2cs/c(=N\N=C\c3ccc(O)cc3O)n2/N=C/c2ccc(O)cc2O)cc1`, the GI50 is 1.96 µM and the TGI came to 5.68 µM.
With `FC(F)(c1ccc2ncccc2c1)c1nnc2ccc(-c3ccncc3)nn12`, the GI50 is 53.5 µM and the TGI is over 100 µM.
For `Cc1ncc(C(=O)Nc2ccc(CN3CCN(C)CC3)c(C(F)(F)F)c2)cc1C#Cc1cnc2cccnn12` the same measures were 1.11 µM and 3.41 µM.
